Values of other authors in US12102645B2, “Fluticasone furoate nasal preparation composition” (TOKO YAKUHIN KOGYO CO., LTD., priority 2018, dated 2024).

Solubility in water: very slightly soluble
SMILES: C[C@@H]1C[C@H]2[C@@H]3C[C@H](F)C4=CC(=O)C=C[C@]4(C)[C@@]3(F)[C@@H](O)C[C@]2(C)[C@@]1(OC(=O)c1ccco1)C(=O)SCF [Fluticasone furoate, 6α,9-difluoro-17β-[(fluoromethylsulfanyl)carbonyl]-11β-hydroxy-16α-methyl-3-oxoandrosta-1,4-dien-17α-yl furan-2-carboxylate]
